Test results reported in patent publication US6030969A, “5,6,7-trisubstituted-4-aminopyrido[2,3-D] pyrimidine compounds” (Abbott Laboratories, priority 1998, dated 2000).
Where a name gives a salt, the structure may show the parent alone.

The molecules below were run against adenosine kinase (Homo sapiens, UniProt P55263) (assay: Inhibition of adenosine kinase in vitro). Details: Table 1, read-out: IC50, Inhibition of Adenosine Kinase by Representative Compounds of the Invention.
Format: biochemical
Source text: The adenosine kinase to be inhibited can be located in vitro, in situ or in vivo. Where the adenosine kinase is located in vitro, adenosine kinase is contacted with the inhibitor compound, typically by adding the compound to an aqueous solution containing the enzyme, radiolabeled substrate adenosine, magnesium chloride and ATP. The enzyme can exist in intact cells or in isolated subcellular fractions containing the enzyme. The enzyme is then maintained in the presence of the inhibitor for a period of time and under suitable physiological conditions. Means for determining maintenance times are well known in the art and depend inter alia on the concentrations of enzyme and the physiological conditions. Suitable physiological conditions are those necessary to maintain adenosine kinase viability and include temperature, acidity, tonicity and the like. Inhibition of adenosine kinase can be performed, by example, according to standard procedures well known in the art (Yamada, et al., Comp. Biochem. Physiol. 1982, 71B: 367-372). […] In vitro adenosine kinase activity can be measured using any of the standard procedures well known in the art. By way of example, cells containing adenosine kinase, such as IMR-32 human neuroblastoma cells, are cultured in the presence and absence of an inhibitor. Inhibition is measured as the ability to inhibit phosphorylation of endogenous or externally applied ^14 C-adenosine by these cells. The cells can be intact or broken. The specificity of adenosine kinase inhibitory activity is determined by studying the effects of inhibitors on adenosine A1 and A2α receptor binding, adenosine deaminase activity and adenosine transport. Numerous inhibitor compounds of the present invention were tested in vitro and found to inhibit adenosine kinase activity.

Sequence of adenosine kinase (P55263 whole entry): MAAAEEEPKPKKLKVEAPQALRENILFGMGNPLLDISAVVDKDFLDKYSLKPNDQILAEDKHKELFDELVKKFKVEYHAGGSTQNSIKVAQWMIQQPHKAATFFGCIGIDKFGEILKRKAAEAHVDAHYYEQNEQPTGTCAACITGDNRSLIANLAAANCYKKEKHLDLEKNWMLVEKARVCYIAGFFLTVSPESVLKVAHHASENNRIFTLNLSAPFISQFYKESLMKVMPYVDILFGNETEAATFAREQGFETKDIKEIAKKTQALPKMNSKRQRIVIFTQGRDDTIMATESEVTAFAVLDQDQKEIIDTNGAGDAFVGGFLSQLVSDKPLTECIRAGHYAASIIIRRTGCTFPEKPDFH

Compound	IC50 [nM]
COc1cccc(Cc2c(-c3cccs3)nc3ncnc(N)c3c2-c2cccc(Br)c2)c1 [Example 9, 4-amino-5-(3-bromophenyl)-6-(3-methoxyphenylmethyl)-7-(thiophen-2-yl)pyrido[2,3-d]pyrimidine hydrochloride]	23
CCc1c(-c2cccs2)nc2ncnc(N)c2c1-c1cccc(Br)c1 [Example 4, 4-amino-5-(3-bromophenyl)-6-ethyl-7-(thiophen-2-yl)pyrido[2,3-d]pyrimidine]	3
COc1ccc(-c2c(-c3cccs3)nc3ncnc(N)c3c2-c2cccc(Br)c2)cc1OC [Example 6, 4-amino-5-(3-bromophenyl)-6-(3,4-dimethoxyphenyl)-7-(thiophen-2-yl)pyrido[2,3-d]pyrimidine]	1
CCOC(=O)Cc1c(-c2cccs2)nc2ncnc(N)c2c1-c1cccc(Br)c1 [Example 8, 4-amino-5-(3-bromophenyl)-6-ethoxycarbonylmethyl-7-(thiophen-2-yl)pyrido[2,3-d]pyrimidine hydrochloride]	3
COc1ccc(-c2c(-c3cccs3)nc3ncnc(N)c3c2-c2cc(Br)cs2)cc1OC [Example 11, 4-amino-5-(4-bromothiophen-2-y)-6-(3,4-dimethoxyphenyl)-7-(thiophen-2-yl)pyrido[2,3-d]pyrimidine hydrochloride]	0.3
CCCCCc1c(-c2ccc(N(C)C)cc2)nc2ncnc(N)c2c1-c1ccc(F)c(Br)c1 [Example 1, 4-amino-5-(3-bromo-4-fluorophenyl)-6-pentyl-7-(4-(dimethylamino)phenyl)pyrido[2,3-d]pyrimidine]	80

More lines, now with the values ahead:

IC50 [nM]	Compound
5	COCCN(C)c1ccc(-c2nc3ncnc(N)c3c(-c3ccccc3)c2-c2ccccc2)cc1 [Example 26, 4-amino-5-phenyl-6-phenyl-7-(4-(N-methyl-N-(2-methoxyethyl)amino)phenyl)pyrido[2,3-d]pyrimidine hydrochloride]
2	Nc1ncnc2nc(-c3ccc(N4CCOCC4)nc3)c(-c3ccccc3)c(-c3cccc(Br)c3)c12 [Example 41, 4-amino-5-(3-bromophenyl)-6-phenyl-7-(6-morpholinyl-3-pyridinyl)pyrido [2,3-d]pyrimidine hydrochloride]
3	Nc1ncnc2nc(-c3ccc(N4CCOCC4)nc3)c(-c3ccccc3)c(-c3ccccc3)c12 [Example 40, 4-amino-5-phenyl-6-phenyl-7-(6-morpholinyl-3-pyridinyl)pyrido [2,3-d]pyrimidine hydrochloride]
0.1	COCCN(C)c1ccc(-c2nc3ncnc(N)c3c(-c3cc(Br)cs3)c2-c2ccc(OC)c(OC)c2)cc1.Cl [Example 19, 4-amino-5-(4-bromothiophen-2-yl)-6-(3,4-dimethoxyphenyl)-7-(4-(N-methyl-N-(2-methoxyethyl)amino)phenyl)pyrido [2,3-d]pyrimidine hydrochloride]
9	CN(C)c1ccc(-c2nc3ncnc(N)c3c(-c3ccccc3)c2-c2ccccc2)cc1.Cl.Cl [Example 27, 4-amino-5,6-diphenyl-7-(4-dimethylaminophenyl)pyrido [2,3-d]pyrimidine dihydrochloride]
5	Nc1ncnc2nc(-c3ccc(N4CCOCC4)nc3)c(-c3ccc(F)cc3)c(-c3cccc(Br)c3)c12 [Example 39, 4-amino-5-(3-bromophenyl)-6-(4-fluorophenyl)-7-(6-morpholinyl-3-pyridinyl)pyrido[2,3-d]pyrimidine hydrochloride]
4	CC(C)c1ccc(-c2c(-c3ccc(N(C)C)cc3)nc3ncnc(N)c3c2-c2ccc(C(C)C)cc2)cc1 [Example 25, 4-amino-5,6-(bis-4-(2-propyl)phenyl)-7-(4-dimethylaminophenyl)pyrido[2.3-d]pyrimidine]
1	COc1ccc(-c2c(-c3cccs3)nc3ncnc(N)c3c2-c2cccc(Cl)c2)cc1OC [Example 12, 4-amino-5-(3-chlorophenyl)-6-(3,4-dimethoxyphenyl)-7-(thiophen-2-yl)pyrido[2,3-d]pyrimidine hydrochloride]

Each molecule was assayed on male CF1 mice (hot plate analgesia) (assay: Mouse hot plate assay (hot plate test of analgesia)). Details: 30 μmol/kg i.p., thirty minutes after pretreatment, 55° C. hot plate; vehicle alone 72.76±10.51 seconds.
Format: in vivo
Protocol: The compounds of the invention were tested in vivo in the hot plate test of analgesia in mammals such as mice. […] Mouse Hot Plate Assay […] At the end of the pretreatment period, the mice are placed in an Omnitech Electronics Automated 16 Animal Hot Plate Analgesia Monitor (Columbus, Ohio; Model […]) in individual, 9.8×7.2×15.3 cm (l×w×h) plastic enclosures on top of a copper plate warmed to 55° C. […] sensors located near the top of each enclosure record beam crossings that occur as the mice jump off of the heated surface. Latency times for each jump are automatically recorded, and latency to both the first and tenth jumps are used for data analysis.

Compound	latency to 10th jump [s]
COCCN(C)c1ccc(-c2nc3ncnc(N)c3c(-c3cc(Br)cs3)c2-c2ccc(OC)c(OC)c2)cc1.Cl [Example 19, 4-amino-5-(4-bromothiophen-2-yl)-6-(3,4-dimethoxyphenyl)-7-(4-(N-methyl-N-(2-methoxyethyl)amino)phenyl)pyrido [2,3-d]pyrimidine hydrochloride]	142.13
CN(C)c1ccc(-c2nc3ncnc(N)c3c(-c3ccccc3)c2-c2ccccc2)cc1.Cl.Cl [Example 27, 4-amino-5,6-diphenyl-7-(4-dimethylaminophenyl)pyrido [2,3-d]pyrimidine dihydrochloride]	154.86
